Assay results: US5710129A, “Inhibitors of SH2-mediated processes” (Ariad Pharmaceuticals, Inc., priority 1995, dated 1998)
Where “and” joins values, the source holds several entries; their conditions need not be identical. Equal values may be shown once. Read-outs that look alike come from different tables or passages of the source. Square brackets hold non-standard residues; d marks the D form. Peptide text beside a SMILES is read from it. * marks the point of attachment. Tyr(3,5-(NO2)2) = N[C@@H](Cc1cc([N+](=O)[O-])c(O)c([N+](=O)[O-])c1)C(=O)O; Acetyl(9-fluorenyl) = O=C(CC1c2ccccc2-c2ccccc21)*; Propanoyl(3,3-Ph2) = O=C(CC(c1ccccc1)c1ccccc1)*; Acetyl(1-naphthyl) = O=C(Cc1cccc2ccccc12)*; Acetyl(2-naphthyl) = O=C(Cc1ccc2ccccc2c1)*; 1Nal = N[C@@H](Cc1cccc2ccccc12)C(=O)O; 2Nal = N[C@@H](Cc1ccc2ccccc2c1)C(=O)O; Fmoc = O=C(OCC1c2ccccc2-c2ccccc21)*; Butanoyl(4-Ph) = O=C(CCCc1ccccc1)*; 2Naphthoyl = O=C(c1ccc2ccccc2c1)*; Hydrocinnamoyl = O=C(CCc1ccccc1)*; X1 = CC(CC(=O)*)c1ccccc1; PhAc = O=C(Cc1ccccc1)*

Tests used:
[1] = molecular target: T1, pp70^ZAP (1-259) (Homo sapiens, UniProt P43403); assay: Tandem ZAP competitive binding assay, surface plasmon resonance (BIAcore); conditions: for IC50: read-out: N,CZap IC-50
T1 sequence (P43403 1-259): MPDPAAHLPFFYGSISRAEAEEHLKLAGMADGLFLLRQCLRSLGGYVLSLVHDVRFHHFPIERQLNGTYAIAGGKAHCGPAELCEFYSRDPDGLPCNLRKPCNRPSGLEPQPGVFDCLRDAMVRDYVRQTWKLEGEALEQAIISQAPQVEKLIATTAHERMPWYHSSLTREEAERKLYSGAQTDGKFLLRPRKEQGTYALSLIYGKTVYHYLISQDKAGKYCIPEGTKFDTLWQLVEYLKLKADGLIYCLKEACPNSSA
Experimental: (§1) Binding was measured by competition using surface plasmon resonance (Malmqvist, M. (1993) Current Opinions in Immunology 5, 282-286) as implemented in the BIAcore Biosensor (Pharmacia Biosensor, Piscataway, N.J.). […] Results were compared to binding measured in the absence of competitor and expressed as percent inhibition. IC50values reflect the concentration of inhibitor required to reduce binding by 50%. Specifics of individual assays are described below. All asssays were run in HEPES Buffered Saline (HBS) composed of 10 mM HEPES (pH 7.4)/150 mM NaCl/3.4 mM EDTA/0.05% Surfactant P20at 25° C. and a flow rate of 5 uL min^-1.
A pp70^ZAP peptide ligand corresponding to the .zeta.-chain ITAM-1 of the human T-cell receptor [NQLY(PO4)NELNIGRREEY(PO4)DVLD] [SEQ ID NO:20] was synthesized as a part of a larger peptide [Ac-KGGNQLY(PO4)NELNIGRREEY-(PO4)DVLD-NH2 ] [SEQ ID NO:21] and used to generate a ZAP-sensitive biosensor surface. Specifically, a Biosensor Chip CM5was activated with 200 mM EDC/50 mM NHS to generate a surface reactive to primary amines and the ITAM peptide immobilized through the N-terminal lysine. Unreacted sites were blocked with ethanolamine (1M in water) and the chip cleaned of non-covalently bound peptide using 6M guanidine hydrochloride. Assays were run in HBS using 10 nM pp70^ZAP (1-259)±test inhibitor. (The designation "b22" indicates use of a corresponding γ-chain ITAM for the .zeta.-chain ITAM.)

[2] = molecular target: T2, pp72^syk (163-265) (Homo sapiens, UniProt P43405); assay: C-Syk competitive binding assay, surface plasmon resonance (BIAcore); conditions: 270 nM protein; hemiphosphorylated γ-chain ITAM of human FcεRI as ligand; read-out: CSyk IC-50
T2 construct: Assays were run in HBS using 270 nM pp72^syk (163-265)
Experimental: as §1
A pp72^syk peptide ligand corresponding to a hemiphosphorylated γ-chain ITAM of human Fcε RI [DGVY(PO4)TGLSTRNQETYETLK] was synthesized as part of a larger peptide [Ac-CGGDGVY(PO4)TGLSTRNQETYETLK-NH2 ] and used to generate a C-Syk-sensitive biosensor surface as described above for tandem syk. Assays were run in HBS using 270 nM pp72^syk (163-265)±test inhibitor.

[3] = molecular target: T3, pp72^syk (1-265) (Homo sapiens, UniProt P43405); assay: Tandem Syk competitive binding assay, surface plasmon resonance (BIAcore); conditions: for IC50 / N,CSyk 1%/Min: 20 nM protein, γ-chain ITAM of human FcεRI as ligand; for IC50: read-out: N,CSyk IC-50
T3 construct: Assays were run in HBS using 20 nM pp72^syk (1-265)
Experimental: as §1
A pp72^syk peptide ligand corresponding to the γ-chain ITAM of human Fcε RI [DGVY(PO4)TGLSTRNQETY(PO4)ETLK] [SEQ ID NO:18] was synthesized as part of a larger peptide [Ac-CGGDGVY(PO4)TGLSTRNQETY-(PO4)ETLK-NH2] [SEQ ID NO:19] and used to generate a Syk-sensitive biosensor surface. Specifically, a Biosensor Chip CM5was activated with 200 mM ethyl-3-(3-dimethylaminopropyl)-carbodiimide hydrochloride (EDC)/50 mM N-hydroxysuccinimide (NHS) to generate a surface reactive to primary amines; treated with ethylenediamine to generate a surface rich in primary amines; activated with m-maleimidobenzoyl-N-hydroxysuccinimide ester (sulfo-MBS; 50 mM in 25 mM NaHCO3) to generate a surface reactive to free thiols; and the ITAM peptide immobilized through the N-terminal cysteine. Unreacted sites were blocked with β-mercaptoethanol and the chip cleaned of noncovalently bound peptide using 6M guanidine hydrochloride. Assays were run in HBS using 20 nM pp72^syk (1-265)±test inhibitor.

[4] = molecular target: T4, pp60^src (144-251) (Homo sapiens, UniProt P12931); assay: Src competitive binding assay, surface plasmon resonance (BIAcore); conditions: for IC50: 270 nM protein, hamster Middle-T antigen phosphopeptide as ligand, read-out: Src IC-50
T4 construct: Assays were run in HBS using 270 nM pp60^src (144-251)
T4 sequence (P12931 144-251): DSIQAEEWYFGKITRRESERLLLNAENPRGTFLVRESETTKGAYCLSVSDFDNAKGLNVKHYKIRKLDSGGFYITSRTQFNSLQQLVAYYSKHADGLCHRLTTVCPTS
Experimental: as §1
A p60^src peptide ligand corresponding to the hamster Middle-T antigen [QY(PO4)EEIPI] [SEQ ID NO:22] was synthesized as a part of a larger peptide [Ac-KGGQY(PO4)EEIPI-NH2 ] [SEQ ID NO:23] and used to generate a src-sensitive biosensor surface as described above for tandem ZAP. Assays were run in HBS using 270 nM pp60^src (144-251)±test inhibitor.

[5] = 10 nM protein, ζ-chain ITAM-1 of human T-cell receptor as ligand

| Compound | IC50 [1, 5] | IC50 [2] | IC50 [3] | IC50 [4] | further results |
| --- | --- | --- | --- | --- | --- |
| CC(C)C[C@H](NC(=O)[C@@H](NC(=O)[C@H](CCC(=O)O)NC(=O)[C@H](Cc1cc([N+](=O)[O-])c(O)c([N+](=O)[O-])c1)NC(=O)OCC1c2ccccc2-c2ccccc21)[C@@H](C)O)C(N)=O [ETLNH2] (Fmoc-[Tyr(3,5-(NO2)2)]ETL-NH2) | 350 µM | 30 µM | 80 µM and 81 µM | > 1000 µM | IC50 ([1]; b22: corresponding γ-chain ITAM used for the ζ-chain ITAM): 20 µM |
| CC(C)C[C@H](NC(=O)[C@@H](NC(=O)[C@H](CCC(=O)O)NC(=O)[C@H](Cc1cc([N+](=O)[O-])c(O)c([N+](=O)[O-])c1)NC(=O)Cc1cccc2ccccc12)[C@@H](C)O)C(N)=O ({Acetyl(1-naphthyl)}-[Tyr(3,5-(NO2)2)]ETL-NH2) | > 100 µM | 24 µM | 100 µM | > 1000 µM | – |
| CC(=O)N[C@H](Cc1ccccc1)C(=O)N[C@@H](Cc1cc([N+](=O)[O-])c(O)c([N+](=O)[O-])c1)C(=O)N[C@@H](CCC(=O)O)C(=O)N[C@H](C(=O)N[C@@H](CC(C)C)C(N)=O)[C@@H](C)O (Ac-[dF][Tyr(3,5-(NO2)2)]ETL-NH2) | > 100 µM | 50 µM | – | 500 µM | – |
| CC(C)C[C@H](NC(=O)[C@@H](NC(=O)[C@H](CCC(=O)O)NC(=O)[C@H](Cc1cc([N+](=O)[O-])c(O)c([N+](=O)[O-])c1)NC(=O)CC(c1ccccc1)c1ccccc1)[C@@H](C)O)C(N)=O ({Propanoyl(3,3-Ph2)}-[Tyr(3,5-(NO2)2)]ETL-NH2) | – | 15 µM | 100 µM | > 1000 µM | N,CZap inhibition ([1]; @ 1000 (μM)): ni |
| CC(C)C[C@H](NC(=O)[C@@H](NC(=O)[C@H](CCC(=O)O)NC(=O)[C@H](Cc1cc([N+](=O)[O-])c(O)c([N+](=O)[O-])c1)NC(=O)CC1c2ccccc2-c2ccccc21)[C@@H](C)O)C(N)=O ({Acetyl(9-fluorenyl)}-[Tyr(3,5-(NO2)2)]ETL-NH2) | > 100 µM | 26 µM | 50 µM | 710 µM | – |
| CC(C)C[C@H](NC(=O)[C@H](CCC(=O)O)NC(=O)[C@H](CC(N)=O)NC(=O)[C@H](Cc1cc([N+](=O)[O-])c(O)c([N+](=O)[O-])c1)NC(=O)OCC1c2ccccc2-c2ccccc21)C(N)=O [NELNH2] (Fmoc-[Tyr(3,5-(NO2)2)]NEL-NH2) | – | – | – | – | N,CZap percent inhibition ([1]; @ 50 (μM)): 10%; N,CSyk percent inhibition ([3]; @ 50 (μM)): 15%; Src percent inhibition ([4]; @ 50 (μM)): 5% |
| CC(C)C[C@H](NC(=O)CNC(=O)[C@@H](NC(=O)[C@H](Cc1cc([N+](=O)[O-])c(O)c([N+](=O)[O-])c1)NC(=O)OCC1c2ccccc2-c2ccccc21)[C@@H](C)O)C(N)=O [TGLNH2] (Fmoc-[Tyr(3,5-(NO2)2)]TGL-NH2) | – | – | – | – | N,CSyk percent inhibition ([3]; @ 23 (μM)): 35% |
| CC(=O)N[C@@H](Cc1ccc2ccccc2c1)C(=O)N[C@@H](Cc1cc([N+](=O)[O-])c(O)c([N+](=O)[O-])c1)C(=O)N[C@@H](CCC(=O)O)C(=O)N[C@H](C(=O)N[C@@H](CC(C)C)C(N)=O)[C@@H](C)O (Ac-[2Nal][Tyr(3,5-(NO2)2)]ETL-NH2) | > 500 µM | > 500 µM | > 100 µM | – | – |
| CC(C)C[C@H](NC(=O)[C@@H](NC(=O)[C@H](CCC(=O)O)NC(=O)[C@H](Cc1cc([N+](=O)[O-])c(O)c([N+](=O)[O-])c1)NC(=O)CCCc1ccccc1)[C@@H](C)O)C(N)=O ({Butanoyl(4-Ph)}-[Tyr(3,5-(NO2)2)]ETL-NH2; N-terminus assumed) | – | – | – | – | N,CSyk 1%/Min [3]: 48 µM |
| CC(C)C[C@H](NC(=O)[C@@H](NC(=O)[C@H](CCC(=O)O)NC(=O)[C@H](Cc1cc([N+](=O)[O-])c(O)c([N+](=O)[O-])c1)NC(=O)CCc1ccccc1)[C@@H](C)O)C(N)=O (Hydrocinnamoyl-[Tyr(3,5-(NO2)2)]ETL-NH2) | > 100 µM | 11 µM | 460 µM | 410 µM | – |
| CC(C)C[C@H](NC(=O)[C@@H](NC(=O)[C@H](CCC(=O)O)NC(=O)[C@H](Cc1cc([N+](=O)[O-])c(O)c([N+](=O)[O-])c1)NC(=O)c1ccc2ccccc2c1)[C@@H](C)O)C(N)=O (2Naphthoyl-[Tyr(3,5-(NO2)2)]ETL-NH2) | – | 35 µM | 380 µM | > 1000 µM | N,CZap inhibition ([1]; @ 100 (μM)): ni; N,CSyk 1%/Min [3]: 67 µM |
| CC(C)C[C@H](NC(=O)[C@@H](NC(=O)[C@H](CCC(=O)O)NC(=O)[C@H](Cc1cc([N+](=O)[O-])c(O)c([N+](=O)[O-])c1)NC(=O)CC(C)c1ccccc1)[C@@H](C)O)C(N)=O (some centres unmarked) (X1-[Tyr(3,5-(NO2)2)]ETL-NH2) | – | – | – | – | N,CSyk 1%/Min [3]: 14 µM |
| CC(=O)N[C@@H](Cc1cccc2ccccc12)C(=O)N[C@@H](Cc1cc([N+](=O)[O-])c(O)c([N+](=O)[O-])c1)C(=O)N[C@@H](CCC(=O)O)C(=O)N[C@H](C(=O)N[C@@H](CC(C)C)C(N)=O)[C@@H](C)O (Ac-[1Nal][Tyr(3,5-(NO2)2)]ETL-NH2) | > 100 µM | 200 µM | 800 µM | > 500 µM | – |
| CC(C)C[C@H](NC(=O)[C@@H](NC(=O)[C@H](CCC(=O)O)NC(=O)[C@H](Cc1cc([N+](=O)[O-])c(O)c([N+](=O)[O-])c1)NC(=O)Cc1ccccc1)[C@@H](C)O)C(N)=O (PhAc-[Tyr(3,5-(NO2)2)]ETL-NH2) | > 1000 µM | 70 µM | > 1000 µM | > 1000 µM | – |
| CC(C)C[C@H](NC(=O)[C@@H](NC(=O)[C@H](CCC(=O)O)NC(=O)[C@H](Cc1cc([N+](=O)[O-])c(O)c([N+](=O)[O-])c1)NC(=O)Cc1ccc2ccccc2c1)[C@@H](C)O)C(N)=O ({Acetyl(2-naphthyl)}-[Tyr(3,5-(NO2)2)]ETL-NH2) | > 100 µM | 20 µM | – | 500 µM | N,CSyk percent inhibition ([3]; @ 50 (μM)): 30% |
| CC(=O)N[C@@H](Cc1ccccc1)C(=O)N[C@@H](Cc1cc([N+](=O)[O-])c(O)c([N+](=O)[O-])c1)C(=O)N[C@@H](CCC(=O)O)C(=O)N[C@H](C(=O)N[C@@H](CC(C)C)C(N)=O)[C@@H](C)O (Ac-F[Tyr(3,5-(NO2)2)]ETL-NH2) | > 1000 µM | 200 µM | > 100 µM | – | – |
| CC(C)C[C@H](NC(=O)[C@@H](NC(=O)[C@H](CC(=O)O)NC(=O)[C@H](Cc1cc([N+](=O)[O-])c(O)c([N+](=O)[O-])c1)NC(=O)OCC1c2ccccc2-c2ccccc21)C(C)C)C(N)=O [DVLNH2] (Fmoc-[Tyr(3,5-(NO2)2)]DVL-NH2) | > 100 µM | – | 24 µM and 30 µM | – | Src percent inhibition ([4]; @ 100 (μM)): 25% |
